Among the test systems are TK-10 renal; UACC-257 melanoma; OVCAR-5 ovarian; NCI-H23 lung; SK-MEL-2 melanoma; SF-268 CNS; DU-145 prostate; HOP-92 NSCLC; SF-539 CNS; UACC-62 melanoma.
What all share (assay): growth of human tumour cells (NCI), 48 h

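48-hour exposure; five concentrations; linearly interpolated endpoints. At the GI50, growth is halved. TGI: total growth inhibition.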 Where only a bound is given, the exact number is not on record here.

As for `Cc1ccccc1NC(=O)N/C(N)=N/c1nc(C)c(C)s1`, the TGI in the assay with TK-10 renal, with UACC-257 melanoma, with OVCAR-5 ovarian, in the assay on NCI-H23 lung, in the assay with SK-MEL-2 melanoma and with SF-268 CNS was greater than 100 µM in each case. Further, the TGI is greater than 100 µM with DU-145 prostate, greater than 100 µM with HOP-92 NSCLC, 4.38 µM in the assay on SF-539 CNS and greater than 100 µM in the assay on UACC-62 melanoma. Further, the GI50 in the assay on UACC-257 melanoma is greater than 100 µM; in the assay on OVCAR-5 ovarian, 0.912 µM; in the assay on NCI-H23 lung, 0.519 µM; in the assay with SK-MEL-2 melanoma, 0.61 µM; in the assay on SF-268 CNS, 15.9 µM; in the assay on DU-145 prostate it was 0.481 µM. Moreover, the figures for the GI50 in the assay with HOP-92 NSCLC, with SF-539 CNS and in the assay with UACC-62 melanoma were 30 µM, 0.254 µM and 0.179 µM, respectively.

Regarding `O=C(CC(O)c1cccnc1)CC(O)c1cccnc1` (centres undefined), the TGI in the assay on TK-10 renal is greater than 100 µM; in the assay on UACC-257 melanoma, 36.1 µM; in the assay on OVCAR-5 ovarian, 54 µM; in the assay on NCI-H23 lung it was 52 µM; with SK-MEL-2 melanoma, 37 µM; in the assay with SF-268 CNS it was greater than 95.9 µM. Besides, the TGI with DU-145 prostate is greater than 89.7 µM; in the assay on HOP-92 NSCLC it was 34.5 µM; in the assay on SF-539 CNS, 53.8 µM; in the assay with UACC-62 melanoma, 32.2 µM.

As for `O=C1/C(=N/N=C(c2ccccc2)c2ccccc2)c2ccccc2-c2ccccc21`, the TGI in the assay with TK-10 renal, with UACC-257 melanoma, in the assay with OVCAR-5 ovarian, with NCI-H23 lung, with SK-MEL-2 melanoma and in the assay on SF-268 CNS was greater than 100 µM in each case. The TGI in the assay on DU-145 prostate is greater than 100 µM; in the assay on HOP-92 NSCLC it was 87.8 µM; in the assay on SF-539 CNS, greater than 100 µM; in the assay on UACC-62 melanoma, greater than 100 µM.

As to `S=P(C1CCCCC1)(C1CCCCC1)C(c1cccnc1)N1CCCC1` (centres undefined), the TGI was 34.3 µM with TK-10 renal; greater than 100 µM in the assay on UACC-257 melanoma; greater than 100 µM in the assay with OVCAR-5 ovarian; 34.6 µM with NCI-H23 lung; 48.7 µM in the assay with SK-MEL-2 melanoma; 38.4 µM with SF-268 CNS. Besides, the TGI in the assay on DU-145 prostate came to 29.8 µM; in the assay with HOP-92 NSCLC, 42.7 µM; with SF-539 CNS, 35.2 µM; in the assay with UACC-62 melanoma, 52.5 µM.

For the molecule `CN(C)c1ccc(/C=N/NC(=O)CSc2nc3sc4c(c3c(=O)n2-c2ccccc2)CCCCC4)cc1`, the GI50 in the assay with TK-10 renal is 4.16 µM; with UACC-257 melanoma, greater than 100 µM; in the assay on OVCAR-5 ovarian, 6.55 µM; in the assay on NCI-H23 lung it was 3.79 µM; with SK-MEL-2 melanoma it was 15.5 µM; in the assay on SF-268 CNS, 11.5 µM. The GI50 in the assay on DU-145 prostate is 3.41 µM; in the assay with HOP-92 NSCLC, 3.55 µM; with SF-539 CNS it was 4.52 µM; with UACC-62 melanoma, 4.04 µM. Moreover, the TGI is greater than 100 µM in the assay with TK-10 renal; greater than 100 µM in the assay with UACC-257 melanoma; greater than 100 µM with OVCAR-5 ovarian; greater than 100 µM in the assay with NCI-H23 lung; 59.3 µM with SK-MEL-2 melanoma; greater than 100 µM with SF-268 CNS. For the same molecule, the TGI with DU-145 prostate is greater than 100 µM; in the assay with HOP-92 NSCLC, 29 µM; with SF-539 CNS, 25.5 µM; with UACC-62 melanoma, greater than 100 µM.

In the case of `CN(C)C(=O)C(NCCO)c1ccccc1` (centres undefined), the TGI in the assay with TK-10 renal, in the assay on UACC-257 melanoma, in the assay on OVCAR-5 ovarian, in the assay with NCI-H23 lung, in the assay with SK-MEL-2 melanoma and in the assay with SF-268 CNS was greater than 100 µM in each case. Further, the TGI in the assay on DU-145 prostate, with HOP-92 NSCLC, in the assay on SF-539 CNS and in the assay with UACC-62 melanoma was greater than 100 µM each time.

As to `COc1ccc2nc(-c3ccc(Cl)cc3)cc(-c3nnc(SCC(=O)Nc4ccc(/C(C)=N\O)cc4)o3)c2c1`, the GI50 is 1.61 µM in the assay on TK-10 renal; 2.16 µM in the assay on UACC-257 melanoma; 2.06 µM in the assay with OVCAR-5 ovarian; 1.38 µM with NCI-H23 lung; 2.46 µM in the assay with SK-MEL-2 melanoma; 1.44 µM with SF-268 CNS. Moreover, the GI50 is 1.52 µM in the assay with DU-145 prostate, 1.77 µM in the assay on HOP-92 NSCLC, 3 µM in the assay with SF-539 CNS and 2.89 µM in the assay on UACC-62 melanoma. Also, the TGI in the assay on TK-10 renal stood at 8.05 µM; in the assay with UACC-257 melanoma, 9.51 µM; in the assay with OVCAR-5 ovarian it was 10.2 µM; in the assay on NCI-H23 lung, 4.3 µM; with SK-MEL-2 melanoma, 9.77 µM; with SF-268 CNS, 5.06 µM. In addition, the TGI in the assay with DU-145 prostate is 5.53 µM; with HOP-92 NSCLC it was 5.26 µM; with SF-539 CNS, 10.7 µM; in the assay on UACC-62 melanoma, 9.93 µM.

Regarding `C=C(C)[C@@H]1CC[C@]2(C(=O)N3CCN(C)CC3)CC[C@]3(C)[C@H](CC[C@@H]4[C@@]5(C)C/C(=C/c6ccncc6)[C@H](O)C(C)(C)[C@@H]5CC[C@]43C)[C@@H]12`, the GI50 in the assay on TK-10 renal is 15.5 µM; in the assay with UACC-257 melanoma, 5.45 µM; in the assay on OVCAR-5 ovarian, 6.04 µM; with NCI-H23 lung, 8.73 µM; with SK-MEL-2 melanoma it was 8.41 µM; with SF-268 CNS, 9.05 µM. Also, the GI50 was 9.53 µM in the assay with DU-145 prostate, 2.88 µM in the assay with HOP-92 NSCLC, 4.12 µM in the assay on SF-539 CNS and 10.2 µM in the assay with UACC-62 melanoma. Further, the TGI was 89.4 µM in the assay on TK-10 renal; 27.8 µM in the assay with UACC-257 melanoma; 26.8 µM in the assay on OVCAR-5 ovarian; greater than 100 µM in the assay with NCI-H23 lung; 26.2 µM in the assay on SK-MEL-2 melanoma; 57.6 µM in the assay with SF-268 CNS. Also, the TGI in the assay with DU-145 prostate turned out to be 24 µM; in the assay on HOP-92 NSCLC, 19.2 µM; in the assay with SF-539 CNS, 16.5 µM; in the assay with UACC-62 melanoma, 27.9 µM.

As for `COc1ccc2c3c(ccc2c1)NC(C(=O)O)CC3` (centres undefined), the TGI in the assay with TK-10 renal, in the assay with UACC-257 melanoma, with OVCAR-5 ovarian, in the assay with NCI-H23 lung, in the assay with SK-MEL-2 melanoma and in the assay with SF-268 CNS was greater than 100 µM throughout. For the same molecule, the TGI in the assay on DU-145 prostate, with HOP-92 NSCLC, with SF-539 CNS and in the assay on UACC-62 melanoma was greater than 100 µM each time.

The values above are taken from PubChem BioAssay (NCI).
